One test addresses Prostacyclin receptor (Homo sapiens, UniProt P43119). In words: Evaluated for its competitive binding affinity towards human Prostanoid IP receptor in CHO cells. It is filed as cell-based.
The target in test [1] is Prostaglandin E2 receptor EP2 subtype (Mus musculus, UniProt Q62053). In words: Evaluated for its competitive binding affinity towards mouse Prostanoid EP2 receptor in CHO cells expressing prostanoid receptor. In kind it is cell-based.
Test [2] has as its target T1, Prostaglandin E2 receptor EP1 subtype (Mus musculus, UniProt P35375).
T1 sequence (P35375 whole entry): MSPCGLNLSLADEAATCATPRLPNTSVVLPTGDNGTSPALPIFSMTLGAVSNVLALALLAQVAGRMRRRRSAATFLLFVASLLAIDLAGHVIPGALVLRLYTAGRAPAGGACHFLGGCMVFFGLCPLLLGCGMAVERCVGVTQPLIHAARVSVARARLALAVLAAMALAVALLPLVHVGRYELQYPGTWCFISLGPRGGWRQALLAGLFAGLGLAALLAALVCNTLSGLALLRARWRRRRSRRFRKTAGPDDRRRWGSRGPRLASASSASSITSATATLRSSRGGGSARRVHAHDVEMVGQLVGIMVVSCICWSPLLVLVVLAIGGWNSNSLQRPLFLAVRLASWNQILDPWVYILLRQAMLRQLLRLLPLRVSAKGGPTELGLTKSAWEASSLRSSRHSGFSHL
Briefly: Evaluated for its competitive binding affinity towards mouse Prostanoid EP1 receptor in CHO cells expressing prostanoid receptor. In kind it is cell-based.

For test [3], the target named is T2, Prostaglandin E2 receptor EP4 subtype (Mus musculus, UniProt P32240). Briefly: Evaluated for its competitive binding affinity towards mouse Prostanoid EP4 receptor in CHO cells expressing prostanoid receptor. In kind it is cell-based.
T2 sequence (P32240 whole entry): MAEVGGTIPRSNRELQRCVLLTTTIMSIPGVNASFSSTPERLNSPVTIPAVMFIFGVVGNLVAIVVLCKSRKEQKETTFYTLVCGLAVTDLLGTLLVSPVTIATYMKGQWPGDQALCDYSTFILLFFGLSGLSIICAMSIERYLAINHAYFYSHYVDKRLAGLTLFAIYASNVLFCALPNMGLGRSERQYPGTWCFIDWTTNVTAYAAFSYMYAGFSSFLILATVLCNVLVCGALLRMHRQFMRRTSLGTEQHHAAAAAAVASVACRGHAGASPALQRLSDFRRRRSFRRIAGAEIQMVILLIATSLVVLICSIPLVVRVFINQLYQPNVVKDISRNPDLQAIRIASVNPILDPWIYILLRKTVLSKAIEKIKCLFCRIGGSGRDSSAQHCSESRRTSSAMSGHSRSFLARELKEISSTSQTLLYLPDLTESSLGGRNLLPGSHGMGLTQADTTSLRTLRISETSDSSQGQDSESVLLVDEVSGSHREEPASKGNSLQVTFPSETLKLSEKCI
Test [4] concerns the target T3, Prostaglandin E2 receptor EP3 subtype (Mus musculus, UniProt P30557).
T3 sequence (P30557 whole entry): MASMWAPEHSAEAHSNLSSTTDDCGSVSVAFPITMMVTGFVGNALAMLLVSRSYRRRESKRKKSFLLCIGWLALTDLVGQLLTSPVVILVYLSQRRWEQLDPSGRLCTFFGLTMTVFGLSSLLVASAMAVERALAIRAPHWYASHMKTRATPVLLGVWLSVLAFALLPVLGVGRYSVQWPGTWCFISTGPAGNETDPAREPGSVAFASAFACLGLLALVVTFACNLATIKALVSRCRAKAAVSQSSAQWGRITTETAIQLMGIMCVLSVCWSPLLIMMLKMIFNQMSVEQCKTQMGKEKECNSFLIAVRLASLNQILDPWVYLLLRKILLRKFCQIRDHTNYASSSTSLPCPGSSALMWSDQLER
In words: Evaluated for its competitive binding affinity towards mouse Prostanoid EP3 receptor in CHO cells expressing prostanoid receptor. In kind it is cell-based.

In test [5] the target is T2, Prostaglandin E2 receptor EP4 subtype. In words: Effective concentration which increases intracellular c-AMP production in mouse Prostanoid EP4 receptor. It is filed as functional, cell-based.
Test [6] can be described thus: Selectivity ratio (Prostanoid EP3 receptor/Prostanoid EP4 receptor) was determined.

pEC50, pKi: −log10 of the molar value.

Chain of Prostacyclin receptor (P43119 whole entry): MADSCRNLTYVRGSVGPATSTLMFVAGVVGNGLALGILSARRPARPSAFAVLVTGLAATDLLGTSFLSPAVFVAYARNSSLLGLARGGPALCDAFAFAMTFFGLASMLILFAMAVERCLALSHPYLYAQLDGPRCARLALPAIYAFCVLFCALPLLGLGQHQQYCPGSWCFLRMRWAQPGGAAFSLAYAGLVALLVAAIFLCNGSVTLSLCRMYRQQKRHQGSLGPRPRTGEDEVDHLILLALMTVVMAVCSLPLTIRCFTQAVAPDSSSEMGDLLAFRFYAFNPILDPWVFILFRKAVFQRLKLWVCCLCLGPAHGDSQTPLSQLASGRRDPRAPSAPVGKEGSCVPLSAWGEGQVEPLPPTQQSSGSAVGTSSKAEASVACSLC
Chain of Prostaglandin E2 receptor EP2 subtype (Q62053 whole entry): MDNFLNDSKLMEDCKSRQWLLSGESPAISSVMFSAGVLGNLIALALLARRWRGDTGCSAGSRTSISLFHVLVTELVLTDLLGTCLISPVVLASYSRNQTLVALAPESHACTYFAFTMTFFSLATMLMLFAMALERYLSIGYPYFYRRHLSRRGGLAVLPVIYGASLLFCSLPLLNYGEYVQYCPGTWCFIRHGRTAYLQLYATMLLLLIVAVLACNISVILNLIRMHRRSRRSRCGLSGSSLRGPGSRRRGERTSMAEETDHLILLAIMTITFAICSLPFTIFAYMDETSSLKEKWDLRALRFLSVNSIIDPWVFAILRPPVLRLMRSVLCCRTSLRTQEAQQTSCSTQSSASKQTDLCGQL

The term pKi denotes the Ki on a negative log10 scale, so that one unit is a factor of ten. Low readings indicate a high Ki, high ones a low Ki. The term pEC50 denotes the negative decadic logarithm of the EC50, by convention in mol/L. A lower pEC50 goes with a large EC50. Consider `CCCCC[C@H](O)/C=C/[C@H]1[C@H](O)CC(=O)[C@@H]1SCCCCCC(=O)O`, for which the pKi on Prostacyclin receptor was 6.06; in test [1], 7.00; in test [2], 6.92; in test [3] it was 9.15; in test [4], 8.35. Moreover, the negative logarithm of the EC50 (pEC50) in test [5] is 8.43.

`CCOCc1cccc(C[C@H](O)/C=C/[C@H]2[C@H](O)CC(=O)[C@@H]2SCCCSCC(=O)O)c1`: the negative logarithm of the Ki (pKi) was less than 5.00 on Prostacyclin receptor; less than 5.00 in test [1]; less than 5.00 in test [2]; 8.03 in test [3]; 5.35 in test [4]. The Selectivity ratio in test [6] came to 450. Further, the pEC50 in test [5] is 8.60.

As to `O=C(O)CSCCCS[C@H]1C(=O)C[C@@H](O)[C@@H]1/C=C/[C@@H](O)Cc1ccccc1`, the pKi is less than 5.00 at Prostacyclin receptor; 5.41 in test [1]; 5.59 in test [2]; 8.15 in test [3]; 6.89 in test [4]. In test [5], this compound showed a negative-log EC50 (pEC50) of 7.47.

Consider `CCCCC[C@H](O)/C=C/[C@H]1[C@H](O)CC(=O)[C@@H]1CSCCSCC(=O)O`, for which the negative-log Ki (pKi) on Prostacyclin receptor is less than 5.00; in test [1] it was 6.00; in test [2], 7.30; in test [3] it was 7.55; in test [4], 8.46. The pEC50 in test [5] was 5.11.

As for `CCCCC[C@H](O)/C=C/[C@H]1[C@H](O)CC(=O)[C@@H]1CCCCCCC(=O)O` [ALPROSTADIL], the negative logarithm of the Ki (pKi) was 7.39 in test [1] and 7.66 in test [2]. The compound further showed a pEC50 in test [5] of 8.60.

In the case of `COc1ccc(C[C@H](O)/C=C/[C@H]2[C@H](O)CC(=O)[C@@H]2SCCCSCC(=O)O)cc1`, the negative-log Ki (pKi) was less than 5.00 at Prostacyclin receptor; 5.82 in test [1]; 5.51 in test [2]; 8.15 in test [3]; 6.66 in test [4]. Also, the Selectivity ratio in test [6] is 50. Further, the pEC50 in test [5] is 7.49.

For `CSCc1cccc(C[C@H](O)/C=C/[C@H]2[C@H](O)CC(=O)[C@@H]2SCCCSCC(=O)O)c1`, the pKi at Prostacyclin receptor was less than 5.00; in test [1], 5.28; in test [2] it was less than 5.00; in test [3], 8.22; in test [4] it was 6.37. In addition, the Selectivity ratio in test [6] worked out at 70. Moreover, the pEC50 in test [5] is 8.32.

For the compound `CCCCC[C@H](O)/C=C/[C@H]1[C@H](O)CC(=O)[C@@H]1SCCSCCC(=O)O`, the negative-log Ki (pKi) on Prostacyclin receptor was less than 5.00; in test [1], 5.92; in test [2], 6.21; in test [3], 8.49; in test [4], 8.36. In addition, the pEC50 in test [5] was 6.77.

For the compound `CCCOCc1cccc(C[C@H](O)/C=C/[C@H]2[C@H](O)CC(=O)[C@@H]2SCCCSCC(=O)O)c1`, the pKi on Prostacyclin receptor is less than 5.00; in test [1], 5.11; in test [2], less than 5.00; in test [3] it was 8.28; in test [4], 5.52. This compound had a pEC50 in test [5] of 8.00.

On to `Cc1ccccc1C[C@H](O)/C=C/[C@H]1[C@H](O)CC(=O)[C@@H]1SCCCSCC(=O)O`, for which the negative-log Ki (pKi) was less than 5.00 at Prostacyclin receptor; 5.60 in test [1]; less than 5.00 in test [2]; 7.66 in test [3]; 6.85 in test [4]. The pEC50 in test [5] was 6.38.

Take `Cc1ccc(C[C@H](O)/C=C/[C@H]2[C@H](O)CC(=O)[C@@H]2SCCCSCC(=O)O)cc1`: the negative-log Ki (pKi) was less than 5.00 at Prostacyclin receptor; 5.92 in test [1]; less than 5.00 in test [2]; 8.14 in test [3]; 7.14 in test [4]. This compound also gave a negative logarithm of the EC50 (pEC50) in test [5] of 6.57.

For the compound `COCCCc1cccc(C[C@H](O)/C=C/[C@H]2[C@H](O)CC(=O)[C@@H]2SCCCSCC(=O)O)c1`, the pKi at Prostacyclin receptor is less than 5.00; in test [1], less than 5.00; in test [2], less than 5.00; in test [3], 7.00; in test [4], less than 5.00. In test [5], the pEC50 was 7.36.

As to `CCCCC[C@H](O)/C=C/[C@H]1[C@H](O)CC(=O)[C@@H]1SCCCOCC(=O)O`, the negative logarithm of the Ki (pKi) was 6.29 on Prostacyclin receptor; 6.82 in test [1]; 5.92 in test [2]; 8.64 in test [3]; 7.96 in test [4]. The pEC50 in test [5] is 8.11.

Consider `CCCC[C@H](C)C[C@H](O)/C=C/[C@H]1[C@H](O)CC(=O)[C@@H]1SCCCCCC(=O)O`, for which the negative logarithm of the Ki (pKi) was 8.48 at Prostacyclin receptor; 7.85 in test [1]; 7.96 in test [2]; 9.40 in test [3]; 8.21 in test [4].

For the compound `COCCc1cccc(C[C@H](O)/C=C/[C@H]2[C@H](O)CC(=O)[C@@H]2SCCCSCC(=O)O)c1`, the pKi was less than 5.00 on Prostacyclin receptor; 5.51 in test [1]; less than 5.00 in test [2]; 8.07 in test [3]; 5.52 in test [4]. The pEC50 in test [5] was 7.92.

As for `COc1cccc(C[C@H](O)/C=C/[C@H]2[C@H](O)CC(=O)[C@@H]2SCCCSCC(=O)O)c1`, the negative-log Ki (pKi) at Prostacyclin receptor is less than 5.00; in test [1], less than 5.00; in test [2], less than 5.00; in test [3], 8.00; in test [4], 6.29. For the same compound, in test [6], the Selectivity ratio worked out at 50. The compound further gave a negative logarithm of the EC50 (pEC50) in test [5] of 7.43.

As to `CCCCC[C@H](O)/C=C/[C@H]1[C@H](O)CC(=O)[C@@H]1SCCCSCC(=O)O`, the pKi on Prostacyclin receptor was less than 5.00; in test [1] it was 6.55; in test [2], 6.21; in test [3], 9.15; in test [4], 6.66. In addition, the negative-log EC50 (pEC50) in test [5] was 8.37.

In the case of `COCc1cccc(C[C@H](O)/C=C/[C@H]2[C@H](O)CC(=O)[C@@H]2SCCCSCC(=O)O)c1`, the pKi on Prostacyclin receptor is less than 5.00; in test [1], 5.68; in test [2] it was less than 5.00; in test [3], 8.51; in test [4], 5.92. Besides, in test [6], the Selectivity ratio was found to be 120. Besides, in test [5], the pEC50 is 8.51.

In the case of `COc1ccccc1C[C@H](O)/C=C/[C@H]1[C@H](O)CC(=O)[C@@H]1SCCCSCC(=O)O`, the pKi was less than 5.00 at Prostacyclin receptor; 5.59 in test [1]; less than 5.00 in test [2]; 7.49 in test [3]; 5.96 in test [4]. In addition, the Selectivity ratio in test [6] worked out at 50. The compound further had a negative logarithm of the EC50 (pEC50) in test [5] of 6.24.

As to `Cc1cccc(C[C@H](O)/C=C/[C@H]2[C@H](O)CC(=O)[C@@H]2SCCCSCC(=O)O)c1`, the pKi on Prostacyclin receptor was less than 5.00; in test [1], 6.12; in test [2] it was less than 5.00; in test [3], 8.72; in test [4], 7.00. This compound showed a pEC50 in test [5] of 8.55.

The values are drawn from ChEMBL document CHEMBL1133893, “Design and synthesis of a highly selective EP4-receptor agonist. Part 1: 3,7-dithiaPG derivatives with high selectivity” (Bioorg Med Chem Lett, 2001).
